Source: ChEMBL document CHEMBL1201862, “PubChem BioAssay data set” (2004)
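Five concentrations, 48 hours, 96-well plates. GI50 marks 50% less growth.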 Calls of active or inactive are those of the source. Cut-off read from the data, not from the text of the source: active = GI50 up to about 1.1 µM and inactive = higher.

Legend:
Assay in all cases: NCI anticancer screen, dose series, 48 h
BT-549 = test system: BT-549
CAKI-1 = test system: CAKI-1
HCC 2998 = test system: HCC 2998
Hs-578T = test system: Hs-578T
IGROV-1 = test system: IGROV-1
K562 = test system: K562
MCF7 = test system: MCF7
MDA-MB-435 = test system: MDA-MB-435
MDA-N = test system: MDA-N
MOLT-4 = test system: MOLT-4
NCI-H23 = test system: NCI-H23
OVCAR-5 = test system: OVCAR-5
OVCAR-8 = test system: OVCAR-8
SF-295 = test system: SF-295
SW-620 = test system: SW-620
U-251 = test system: U-251
COLO 205 = test system: COLO 205
SK-OV-3 = test system: SK-OV-3
SNB-19 = test system: SNB-19

Measured: GI50

CC1=NN(c2cccc(Cl)c2)C2(SCC(=O)N2c2nc3ccccc3s2)/C1=C\c1cccs1 (stereo unspecified)
inactive: BT-549 17.6 µM | CAKI-1 29.7 µM | HCC 2998 16.6 µM | Hs-578T 22.5 µM | IGROV-1 27.3 µM | K562 4.58 µM | MCF7 27.4 µM | MDA-MB-435 30.5 µM | MDA-N 21.1 µM | MOLT-4 11.4 µM | NCI-H23 18.5 µM | OVCAR-5 20.8 µM | OVCAR-8 20.8 µM | SF-295 27.4 µM | SW-620 34.3 µM | U-251 20.3 µM

COc1cc(C(=O)OCCn2[nH]c(-c3ccc(Cl)cc3)nc2=S)cc(OC)c1OC
inactive: BT-549 31.3 µM | CAKI-1 37.7 µM | COLO 205 > 100 µM | HCC 2998 56.4 µM | Hs-578T 47.8 µM | K562 47.8 µM | MCF7 > 100 µM | MDA-MB-435 51.1 µM | MDA-N 49 µM | MOLT-4 22.9 µM | NCI-H23 49.1 µM | OVCAR-5 > 100 µM | OVCAR-8 90.8 µM | SF-295 44.7 µM | SK-OV-3 > 100 µM | SNB-19 > 100 µM | SW-620 > 100 µM | U-251 83.8 µM

N=C(N)NC(=N)Nc1ccc(S(=O)(=O)O)cc1
inactive: BT-549 > 100 µM | CAKI-1 > 100 µM | COLO 205 > 100 µM | HCC 2998 > 100 µM | Hs-578T > 100 µM | IGROV-1 > 100 µM | K562 > 100 µM | MCF7 > 100 µM | MDA-MB-435 > 100 µM | MDA-N > 100 µM | NCI-H23 > 100 µM | OVCAR-5 > 100 µM | OVCAR-8 > 100 µM | SF-295 > 100 µM | SK-OV-3 > 100 µM | SNB-19 > 100 µM | SW-620 > 100 µM | U-251 > 100 µM

c1cc2c3ccsc3c3sccc3c2s1
inactive: BT-549 > 100 µM | CAKI-1 > 100 µM | COLO 205 > 100 µM | HCC 2998 36.4 µM | Hs-578T 11.9 µM | IGROV-1 16.3 µM | K562 > 100 µM | MCF7 26.9 µM | MDA-MB-435 > 100 µM | MDA-N > 100 µM | MOLT-4 55.7 µM | NCI-H23 47.5 µM | OVCAR-5 > 100 µM | OVCAR-8 > 100 µM | SF-295 > 100 µM | SK-OV-3 > 100 µM | SW-620 > 100 µM | U-251 > 100 µM

Cc1ccc(S(=O)(=O)NC(=O)NNc2ccc(F)cc2)cc1
inactive: BT-549 > 31.6 µM | CAKI-1 > 100 µM | COLO 205 > 100 µM | HCC 2998 > 100 µM | Hs-578T > 100 µM | IGROV-1 > 100 µM | MCF7 > 100 µM | MDA-MB-435 > 100 µM | MDA-N > 100 µM | MOLT-4 > 100 µM | NCI-H23 > 10 µM | OVCAR-5 > 100 µM | SF-295 > 100 µM | SK-OV-3 > 100 µM | SNB-19 > 100 µM | SW-620 > 100 µM | U-251 > 100 µM

O=c1c2cc([N+](=O)[O-])ccc2oc2nc3n(c(=O)c12)CCCS3
inactive: BT-549 > 100 µM | CAKI-1 > 100 µM | COLO 205 > 100 µM | HCC 2998 > 100 µM | Hs-578T 56.1 µM | IGROV-1 > 100 µM | K562 > 100 µM | MCF7 > 100 µM | MDA-MB-435 > 100 µM | MDA-N > 100 µM | MOLT-4 > 100 µM | NCI-H23 > 100 µM | OVCAR-5 > 100 µM | SF-295 > 100 µM | SK-OV-3 > 100 µM | SNB-19 > 100 µM | SW-620 > 100 µM | U-251 > 100 µM

COc1c2cc(C(C)(C)C)cc1CSCc1cc(C(C)(C)C)cc(c1OC)CCCCC2
inactive: BT-549 21.6 µM | COLO 205 > 50 µM | HCC 2998 29.6 µM | Hs-578T > 50 µM | IGROV-1 21.4 µM | K562 > 50 µM | MCF7 > 50 µM | MDA-MB-435 > 50 µM | MDA-N > 50 µM | MOLT-4 29.6 µM | NCI-H23 36.7 µM | OVCAR-5 > 50 µM | OVCAR-8 28.2 µM | SF-295 17 µM | SK-OV-3 > 50 µM | SNB-19 20.2 µM | SW-620 > 50 µM | U-251 27 µM

COC(=O)/C=C(\S/C(=N\n1cc(C(=O)OC)c(C(=O)OC)c1-c1ccc(C)cc1)c1ccc(C)cc1)C(=O)OC
inactive: BT-549 7.23 µM | COLO 205 2.45 µM | HCC 2998 18.7 µM | Hs-578T 18.4 µM | IGROV-1 7.85 µM | K562 1.43 µM | MCF7 6.7 µM | MDA-MB-435 5.94 µM | MDA-N 5.79 µM | MOLT-4 4.26 µM | NCI-H23 5.62 µM | OVCAR-5 6.7 µM | OVCAR-8 12.9 µM | SF-295 32.8 µM | SK-OV-3 32.3 µM | SNB-19 34 µM | SW-620 1.77 µM | U-251 5.66 µM
